According to patent publication US20100062437A1, “PARALLEL PROFILLING OF SIGNALING PATHWAYS” (priority 2007, published 2010):

Legend:
[1] = system: DLD-1 cells; assay: Degradation of long-lived proteins (proteolysis) in DLD-1 cells; format: cell-based, human; conditions: for effect on ouabain-induced increase in protein degradation: 20 mM NH4Cl and 100 μM leupeptine or 10 mM 3-methyladenine during the chase
Description: The Na^+/K^+-ATPase is the common target of ouabain, digoxin, and digitoxin (Buckalew, 2005). Na^+/K^+-ATPase inhibition induces a plethora of effects including (a) disruption of the Na^+/K^+ gradient and consequent increase in intracellular [Ca^2+] (Grapengiesser et al., 1993), (b) interference with amino acid uptake (Johnson et al., 1986), and (c) the production of reactive oxygen species resulting in oxidative damage to proteins and organelles (Xie et al., 1999). Each of these individual events is either sufficient or necessary to promote autophagy. The latter maintains cell viability by furnishing essential biochemical building blocks via degradation of existing proteins and organelles in lysosomes (Levine and Klionsky, 2004). However, the effect of ouabain, or its cardiotonic congeners, on autophagy has not been examined. The later was explored by measuring rates of degradation of long-lived proteins, the preferential substrate for lysosomal degradation, in DLD-1 cells. […] The latter implies that macroautophagy, the degradation of sequestered material in a vesicular-based fashion, along with other types of autophagy (i.e. chaperone-mediated autophagy and microautophagy) contribute to ouabain-induced proteolysis.
Intracellular Protein Turnover. Rates of protein synthesis were measured in confluent cells as the incorporation of [3H]leucine [10 μCi/ml (1 Ci=37 GBq)] into acid-insoluble material in the presence of an excess (2.8 mM) of unlabeled leucine in the medium (to minimize differences due to alteration of amino acid transport and/or intracellular amino acid pool sizes). 28 To measure degradation of long-lived proteins, confluent cells were labeled with [3H]leucine (2 μCi/ml) for 48 h at 37° C. and then extensively washed and maintained in complete or amino acid depleted medium containing an excess of unlabeled leucine. Aliquots of the medium taken at different times were precipitated with trichloroacetic acid, and proteolysis was calculated as the amount of acid precipitable radioactivity converted into acid soluble at each time (Auteri et al., 1983). Where indicated, 20 mM NH4Cl and 100 μM leupeptine or 10 mM 3-methyladenine were added during the chase to block lysosomal proteolysis or macroautophagy, respectively.

[2] = system: mTOR; assay: mTOR mRNA quantity in DLD-1 cells in response to ouabain; format: cell-based, human
Description: (§1) hSMG1 is a member of the PIKK family, which also includes ATM, ATR, mTOR, and DNA-PK (Therien and Blostein, 2000). These large, structurally homologous, proteins have been implicated as participants in the cellular response to various forms of stress.

[3] = system: ATM; assay: ATM mRNA quantity in DLD-1 cells in response to ouabain; format: cell-based, human
Description: as §1

[4] = system: hSMG1 protein; assay: hSMG1 protein quantitation by Western blot in DLD-1 cells; format: cell-based, human; conditions: 10 μM ouabain for 24 hr
Method: hSMG1 Protein Quantitation. DLD-1 cells were exposed to 10 μM ouabain for 24 hr and subsequently lysed. Total protein concentration, following centrifugation, was determined using the BCA Protein Assay Kit (Pierce). Following electrophoresis, the membrane was divided and the individual halves separately exposed to the SMG1 antibody BL1657 (Bethyl Laboratories) and the actin antibody A5441 (Sigma) and then subsequently incubated with the appropriate horseradish peroxidase conjugated secondary antibodies. The membranes were treated with the Pierce Supersignal West Pico chemiluminescent reagent and quantified.

[5] = system: DNAPK; assay: DNAPK mRNA quantity in DLD-1 cells in response to ouabain; format: cell-based, human
Description: as §1

[6] = system: hSMG1 mRNA; assay: Drug library screen, hSMG1 mRNA quantitation by branched DNA assay in HeLa cells; format: cell-based, human
Method: HeLa cells were separately exposed to each drug from the drug library in a multiwell plate format. After 24 h, hSMG mRNA was captured and quantified using a branched DNA assay (Collins et al., 1997). Actin mRNA levels were simultaneously measured from the same cell lysate in order to compensate for differences in viable cell number as a consequence of drug treatment. […] Both agents bind to and inhibit the Na^+/K^+-ATPase (Therien and Blostein, 2000).
Drug Library Screen and hSMG1 message quantitation. The QuantiGene® Explore kit (Panomics, Inc.) was used to furnish a direct quantitation of mRNA in a 96 well format. The “housekeeper gene” […] was selected as an intracellular control. Specific oligonucleotide probes for hSMG1, including capture extenders (CE), label extenders (LE) and blocking probes (BL) were designed with the Panomics ProbeDesigner™ software and synthesized. Prior to drug exposure, HeLa cells were incubated for 24 hr in 150 μL Dulbecco's modified Eagle Medium (DMEM) with 10% fetal bovine serum (FBS) and DLD-1 cells were incubated for 24 hr in 150 μL MEM with 1 mM MEM nonessential amino acids, 1 mM sodium pyrurate, 0.15% sodium bicarbonate, and 10% FBS. Cells were then exposed to various concentrations of the drugs for 24 hr and then lysed via incubation in 75 μL lysis buffer (QuantiGene® Explore kit) at 53° C. for 1 hr. Capture of hSMG1 and actin mRNA was conducted according to the manufacturers instructions and quantification performed using a microplate luminometer.

[7] = system: hSMG1 mRNA; assay: hSMG1 over-expression response to ouabain in other cell lines; format: cell-based
[8] = system: hSMG1 mRNA; assay: hSMG1 mRNA quantitation (branched DNA assay) in DLD-1 cells exposed to ouabain; format: cell-based, human
Method: The QuantiGene® Explore kit (Panomics, Inc.) was used to furnish a direct quantitation of mRNA in a 96 well format. The “housekeeper gene” 13-actin was selected as an intracellular control. Specific oligonucleotide probes for hSMG1, including capture extenders (CE), label extenders (LE) and blocking probes (BL) were designed with the Panomics ProbeDesigner™ software and synthesized. Prior to drug exposure, HeLa cells were incubated for 24 hr in 150 μL Dulbecco's modified Eagle Medium (DMEM) with 10% fetal bovine serum (FBS) and DLD-1 cells were incubated for 24 hr in 150 μL MEM with 1 mM MEM nonessential amino acids, 1 mM sodium pyrurate, 0.15% sodium bicarbonate, and 10% FBS. Cells were then exposed to various concentrations of the drugs for 24 hr and then lysed via incubation in 75 μL lysis buffer (QuantiGene® Explore kit) at 53° C. for 1 hr. Capture of hSMG1 and actin mRNA was conducted according to the manufacturers instructions and quantification performed using a microplate luminometer.

[9] = system: hSMG1 transcription sites; assay: Fluorescence in situ hybridization (FISH) of active hSMG1 transcription sites in DLD-1 cells; format: cell-based, human; conditions: ouabain 10 μM for 1 hr, untreated 0.19
Description: The branched chain DNA assay affords an averaged expression response from a cell population. The magnitude of this response is a function of actin mRNA levels, a baseline that furnishes relative, but not absolute, hSMG1 mRNA quantity. Since actin mRNA levels may be susceptible to influence by these drugs as well, fluorescence in situ hybridization was employed to directly visualize hSMG1 mRNA transcription sites in the DLD-1 cell line. […] Furthermore, these enhanced levels of mRNA synthesis rate and quantity directly translate into higher proteins levels, as exemplified by the ouabain-induced 2.7-fold increase in hSMG1 protein in DLD-1 cells (FIG. 2).
Fluorescence in situ hybridization (FISH). Previously described oligomer probes, each 50 bases in length from four regions of the hSMG1 gene, were designed with OLIGO software from Molecular Biology Insights, Inc., and synthesized on an Applied Biosystems automated DNA/RNA synthesizer (Capodieci et al., 2005). The activated fluorophore cy3 (Amersham) was used to label the probes. DLD-1 cells were seeded onto gelatinized coverslips, incubated as described above for 24 hr, and then treated with ouabain (10 μm) for 1 hr. […] The FISH specimens were imaged and analyzed as previously described (Capodieci et al., 2005).

[10] = system: ATR; assay: ATR mRNA quantity in DLD-1 cells in response to ouabain; format: cell-based, human
Description: as §1

[11] = system: HEK293 cells; assay: Rate of proteolysis in HEK293 cells after hSMG1 RNAi knockdown; format: cell-based, human; conditions: RNAi knockdown of hSMG1, lysosomal inhibitor added
Description: Autophagy is the quintessential cellular response to limited nutrient supplies and/or the presence of damaged cytoplasmic components (Levine and Yuan, 2005). The corresponding ouabain-induced overexpression of hSMG1 may be a biochemical mechanism by which metabolic homeostasis is re-established, either by inhibiting or promoting autophagy. The possible influence of hSMG1 on autophagy was examined via a series of RNAi knockdown experiments. […] Consequently, all knockdown experiments were performed using the 293 cell line. Following RNAi knockdown, cells were either exposed to or deprived of amino acids and the effect on the rate of proteolysis noted. […] Protein degradation is enhanced in RNAi knockdown cells versus their unaltered counterparts (FIG. 3a). […]
Intracellular Protein Turnover. Rates of protein synthesis were measured in confluent cells as the incorporation of [3H]leucine [10 μCi/ml (1 Ci=37 GBq)] into acid-insoluble material in the presence of an excess (2.8 mM) of unlabeled leucine in the medium (to minimize differences due to alteration of amino acid transport and/or intracellular amino acid pool sizes). […] Aliquots of the medium taken at different times were precipitated with trichloroacetic acid, and proteolysis was calculated as the amount of acid precipitable radioactivity converted into acid soluble at each time (Auteri et al., 1983). […]

## Cn1cnc(N)c2ncnc1-2 [3-methyladenine]
[1]; ouabain treated, 10 mM 3-methyladenine
  lysosomal degradation sensitive to 3-methyladenine: 30.5±3.4%
[1]; ouabain treated
  effect on ouabain-induced increase in protein degradation: partially offsets the effect of ouabain

## C[C@@H]1O[C@@H](O[C@H]2C[C@@H](O)[C@]3(CO)[C@H]4[C@H](O)C[C@]5(C)[C@@H](C6=CC(=O)OC6)CC[C@]5(O)[C@@H]4CC[C@]3(O)C2)[C@H](O)[C@H](O)[C@H]1O [Ouabain, ouabain]
[2]
  change in mTOR mRNA quantity: 1.3±0.1 fold
[3]
  change in ATM mRNA quantity: 1.1±0.1 fold
[1]; ouabain 10 μM, compared with amino acid starvation
  effect on proteolysis (degradation of long-lived proteins): dramatically enhances proteolysis
[4]
  increase in hSMG1 protein: 2.7 fold
[5]
  change in DNAPK mRNA quantity: 0.8±0.1 fold
[6]
  enhancement of hSMG1 expression levels: 2 fold
[7]; 786-0 renal carcinoma, ouabain 10 μM
  hSMG1 over-expression response: 6.1±0.4 fold
[7]; GM02037 wild type fibroblast, ouabain 10 μM
  hSMG1 over-expression response: 3.4±0.1 fold
[7]; HEK 293, ouabain 10 μM
  hSMG1 over-expression response: 3.3±0.2 fold
[7]; PC3 prostate carcinoma, ouabain 10 μM
  hSMG1 over-expression response: 2.7±0.2 fold
[7]; U87 glioblastoma, ouabain 10 μM
  hSMG1 over-expression response: 1.4±0.1 fold
[7]; primary astrocyte, ouabain 10 μM
  hSMG1 over-expression response: 5.4±0.1 fold
[8]; DLD-1 adenocarcinoma, ouabain 10 μM
  hSMG1 over-expression response: 4.3±0.1 fold
[8]; DLD-1 cells in response to ouabain
  enhancement in hSMG1 mRNA quantity: 4.3±0.1
[8]; DLD-1 cells, ouabain 10 μM alone, mean ± S.D. of three wells
  hSMG1 Expression relative to untreated cells: 4.3 ± 0.1
[9]
  fraction of cells displaying active hSMG1 transcription sites: 0.63±0.1
[10]
  change in ATR mRNA quantity: 0.7±0.1 fold

## Cl.N [ammonium chloride]
[1]; ouabain treated
  effect on ouabain-induced increase in protein degradation: completely blocked
[11]
  effect on protein degradation caused by hSMG1 knockdown: only partly mitigates the effect of hSMG1 knockdown on protein degradation

## CC(=O)N[C@@H](CC(C)C)C(=O)N[C@@H](CC(C)C)C(=O)N[C@H](C=O)CCCNC(=N)N [leupeptin]
[1]; ouabain treated
  effect on ouabain-induced increase in protein degradation: completely blocked
